Assay results as given in ChEMBL document CHEMBL4354875, “Structural Basis for EGFR Mutant Inhibition by Trisubstituted Imidazole Inhibitors” (J Med Chem, 2020).

Experiments:
[1] = biological target: Epidermal growth factor receptor (Homo sapiens, UniProt P00533, C797S/L858R/T790M); assay: Inhibition of human EGFR L858R/T790M/C797S mutant using poly[Glu:Tyr] (4:1) as substrate measured in presence of [gamma-33P]ATP by radiometric assay
[2] = biological target: Epidermal growth factor receptor (Homo sapiens, UniProt P00533, L858R/T790M); assay: Inhibition of human EGFR L858R/T790M mutant using poly[Glu:Tyr] (4:1) as substrate measured in presence of [gamma-33P]ATP by radiometric assay
Sequence of Epidermal growth factor receptor (Homo sapiens, UniProt P00533, L858R/T790M) (P00533 25-1210 T790M/L858R limits assumed): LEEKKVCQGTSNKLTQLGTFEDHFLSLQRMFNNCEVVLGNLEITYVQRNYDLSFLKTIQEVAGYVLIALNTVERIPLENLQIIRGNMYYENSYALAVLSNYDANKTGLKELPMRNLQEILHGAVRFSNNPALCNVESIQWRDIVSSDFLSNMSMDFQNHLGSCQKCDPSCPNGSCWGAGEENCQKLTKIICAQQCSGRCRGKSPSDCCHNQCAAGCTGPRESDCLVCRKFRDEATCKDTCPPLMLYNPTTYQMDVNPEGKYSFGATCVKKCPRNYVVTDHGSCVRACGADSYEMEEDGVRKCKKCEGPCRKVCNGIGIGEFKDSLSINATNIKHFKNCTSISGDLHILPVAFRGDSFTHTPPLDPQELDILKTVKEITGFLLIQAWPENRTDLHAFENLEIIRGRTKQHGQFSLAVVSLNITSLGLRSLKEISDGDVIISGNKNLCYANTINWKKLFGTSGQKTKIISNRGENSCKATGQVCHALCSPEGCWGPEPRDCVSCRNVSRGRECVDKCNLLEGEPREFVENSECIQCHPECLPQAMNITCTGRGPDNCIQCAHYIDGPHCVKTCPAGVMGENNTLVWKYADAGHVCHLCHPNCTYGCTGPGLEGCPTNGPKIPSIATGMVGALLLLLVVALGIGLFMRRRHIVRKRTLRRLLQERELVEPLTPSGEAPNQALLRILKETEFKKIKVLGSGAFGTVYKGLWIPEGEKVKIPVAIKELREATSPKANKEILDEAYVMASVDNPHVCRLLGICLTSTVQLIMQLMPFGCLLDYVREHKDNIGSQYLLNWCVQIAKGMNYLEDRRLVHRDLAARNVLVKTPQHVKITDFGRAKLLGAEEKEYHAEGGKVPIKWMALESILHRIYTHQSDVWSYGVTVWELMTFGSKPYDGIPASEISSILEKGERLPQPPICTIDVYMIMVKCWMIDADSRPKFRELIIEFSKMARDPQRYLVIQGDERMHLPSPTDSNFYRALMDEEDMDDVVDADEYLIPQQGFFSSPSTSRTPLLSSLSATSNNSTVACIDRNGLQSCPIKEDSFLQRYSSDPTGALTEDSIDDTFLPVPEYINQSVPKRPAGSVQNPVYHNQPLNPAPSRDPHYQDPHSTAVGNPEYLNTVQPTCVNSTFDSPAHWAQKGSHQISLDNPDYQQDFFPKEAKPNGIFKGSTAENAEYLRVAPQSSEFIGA

Sequence of Epidermal growth factor receptor (Homo sapiens, UniProt P00533, C797S/L858R/T790M) (P00533 25-1210 T790M/C797S/L858R limits assumed): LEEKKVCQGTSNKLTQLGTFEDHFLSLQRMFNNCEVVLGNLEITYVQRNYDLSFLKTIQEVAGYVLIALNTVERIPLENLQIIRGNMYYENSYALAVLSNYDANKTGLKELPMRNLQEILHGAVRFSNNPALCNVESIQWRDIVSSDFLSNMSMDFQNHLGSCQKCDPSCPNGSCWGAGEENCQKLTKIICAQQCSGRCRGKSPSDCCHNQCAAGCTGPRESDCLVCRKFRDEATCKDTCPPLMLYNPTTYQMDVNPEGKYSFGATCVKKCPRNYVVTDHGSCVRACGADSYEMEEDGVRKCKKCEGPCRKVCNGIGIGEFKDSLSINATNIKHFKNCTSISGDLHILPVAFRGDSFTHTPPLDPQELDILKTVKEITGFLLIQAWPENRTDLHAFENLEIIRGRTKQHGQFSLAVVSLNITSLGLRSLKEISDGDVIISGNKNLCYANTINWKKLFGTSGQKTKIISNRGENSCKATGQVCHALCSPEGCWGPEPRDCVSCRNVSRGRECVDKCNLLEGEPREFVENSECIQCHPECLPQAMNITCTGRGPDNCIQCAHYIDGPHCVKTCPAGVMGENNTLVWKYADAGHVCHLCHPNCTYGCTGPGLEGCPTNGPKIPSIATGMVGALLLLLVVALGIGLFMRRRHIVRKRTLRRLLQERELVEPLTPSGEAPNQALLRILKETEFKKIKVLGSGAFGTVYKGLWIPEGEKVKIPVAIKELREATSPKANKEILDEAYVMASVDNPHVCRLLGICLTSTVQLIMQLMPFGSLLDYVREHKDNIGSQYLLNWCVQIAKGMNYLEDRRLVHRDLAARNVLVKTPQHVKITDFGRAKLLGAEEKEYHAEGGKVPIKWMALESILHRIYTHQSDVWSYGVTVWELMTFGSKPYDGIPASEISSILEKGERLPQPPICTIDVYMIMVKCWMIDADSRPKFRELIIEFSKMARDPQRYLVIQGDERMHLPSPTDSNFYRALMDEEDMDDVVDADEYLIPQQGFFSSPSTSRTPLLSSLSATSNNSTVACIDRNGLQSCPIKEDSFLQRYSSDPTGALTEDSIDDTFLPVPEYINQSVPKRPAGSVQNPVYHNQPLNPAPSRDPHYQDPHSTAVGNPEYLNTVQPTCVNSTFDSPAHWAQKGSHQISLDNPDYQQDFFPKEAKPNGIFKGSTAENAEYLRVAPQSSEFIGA

| IC50 [1] [µM] | IC50 [2] [nM] | SMILES |
| --- | --- | --- |
| > 5 | 111 | C=CC(=O)Nc1ccc(OC)c(Nc2cc(-c3c(-c4ccc(F)cc4)nc(SC)n3C)ccn2)c1 |
| > 5 | 1 | C=CC(=O)Nc1ccc(OC)c(Nc2cc(-c3nc(SC)n(C)c3-c3ccc(F)cc3)ccn2)c1 |
